Assay results taken from patent US4882349A, “Pyrrolacetic amides having antiinflammatory activity” (priority 1982, dated 1989).

What was measured:
[1] = test system: mucus secreted by the respiratory airway; test: antisecretory activity, respiratory mucus secretion; assay type: in vivo, albino male New Zealand rabbits; details: vs control group
Description: The experiment was carried out in accordance with the method described by Y. Kase (Folia Pharmacol. Jap. 73: 605, 1977) for the purpose of investigating whether or not the compounds under examination determine changes in the volume of the mucus secreted by the respiratory airway. Groups of four albino male New Zealand rabbits (mean weight: 2.5 kg) were used for testing each dose per single group. The animals were anesthetized with urethane (1.1 g/ks b.w.) via the intraperitoneal route and a Y cannula was inserted into the trachea. In order to stimulate mucous secretion a humidifier was connected to the cannula permitting the animals to spontaneously breathe air with 100% humidity at a constant temperature of 39° C. The secreted mucus was collected through another opening in the cannula and measured at three and six hours after administration of the compounds under examination or of the vehicle alone administered in the order of […] (controls). Calculation of the increase or decrease in mucous secretion was based upon the percentage differences between the groups treated with the compounds under examination and the control group. Table VII gives the percentage differences in mucous secretion, and the tested compounds with relative doses and routes of administration.

[2] = test system: cough provoked by mechanical stimulation of the tracheal bifurcation mucosa; test: antitussive activity, mechanically provoked coughing; assay type: in vivo, albino Guinea-pigs; details: 1 h after administration
Description: The antitussive effect on albino Guinea-pigs weighing 300 g was evaluated using the method described by Y. Kase (Selected Pharmacological Testing Methods, p.363, Marcel Dekker Inc., New York, 1968). Each dose was tested in a group of animals with a Y cannula inserted into the trachea. In order to provoke coughing, the mucosa of the tracheal bifurcation was mechanically stimulated by insertion of a wild boar's hair through an opening in the cannula, while the other opening was connected to a kymograph to plot the amplitude and/or frequency. The reduction in the number of coughs was evaluated at one hour after administration of the compounds under examination by following the plottings for twenty minutes and comparing the response of the control animals.

[3] = test system: carrageenin-induced oedema; test: carrageenin-induced oedema test (anti-inflammatory activity); assay type: in vivo, albino male Wistar rats
[4] = test system: phenyl-p-quinone-induced writhing (abdominal contractions); test: phenylquinone-induced writhing test (analgesic activity), compound given 30 min before phenyl-p-quinone; assay type: in vivo, male Wistar rats
Procedure, shortened: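 Male Wistar rats (110±5 g), fasted 14 h, received test compounds orally or parenterally in 0.5% CMC/saline vehicle 30 min before 2 ml of 0.36% phenyl-p-quinone in 5% ethanol.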

[5] = 25 mg/Kg, Table IV (route not given), 2 h
[6] = 25 mg/Kg, Table IV (route not given), 4 h
[7] = 25 mg/Kg, Table IV (route not given), 6 h
[8] = 25 mg/Kg, Table IV (route not given), 24 h
[9] = 25 mg/Kg, Table IV (route not given), 48 h
[10] = 25 mg/Kg, Table IV (route not given), 72 h
[11] = 50 mg/Kg, Table IV (route not given), 2 h
[12] = 50 mg/Kg, Table IV (route not given), 4 h
[13] = 50 mg/Kg, Table IV (route not given), 6 h
[14] = 50 mg/Kg, Table IV (route not given), 24 h
[15] = 50 mg/Kg, Table IV (route not given), 48 h
[16] = 50 mg/Kg, Table IV (route not given), 72 h
[17] = 100 mg/Kg, Table IV (route not given), 2 h
[18] = 100 mg/Kg, Table IV (route not given), 4 h
[19] = 100 mg/Kg, Table IV (route not given), 6 h
[20] = 100 mg/Kg, Table IV (route not given), 24 h
[21] = 100 mg/Kg, Table IV (route not given), 48 h
[22] = 100 mg/Kg, Table IV (route not given), 72 h

CCOC(=O)c1ccc(NC(=O)Cc2ccc(C(=O)c3ccc(C)cc3)n2C)cc1 [Compound 1-h, 1-methyl-5-p-toluoylpyrrole-2-N-(4-carboxyethyl-phenyl) acetamide]
% difference in mucus secretion ([1]; 50 mg/Kg i.p., 3 h): -8% | % difference in mucus secretion ([1]; 50 mg/Kg i.p., 6 h): -3% | % difference in mucus secretion ([1]; 50 mg/Kg per os, 3 h): -5% | % difference in mucus secretion ([1]; 50 mg/Kg per os, 6 h): 0.0% | % difference in mucus secretion ([1]; 75 mg/Kg i.p., 3 h): -26% | % difference in mucus secretion ([1]; 75 mg/Kg i.p., 6 h): -20% | % difference in mucus secretion ([1]; 75 mg/Kg per os, 3 h): -19% | % difference in mucus secretion ([1]; 75 mg/Kg per os, 6 h): -16% | % difference in mucus secretion ([1]; 100 mg/Kg i.p., 3 h): -41% | % difference in mucus secretion ([1]; 100 mg/Kg i.p., 6 h): -38% | % difference in mucus secretion ([1]; 100 mg/Kg per os, 3 h): -39% | % difference in mucus secretion ([1]; 100 mg/Kg per os, 6 h): -32% | % inhibition, cough amplitude ([2]; 50 mg/Kg i.p.): 20% | % inhibition, cough frequency ([2]; 50 mg/Kg i.p.): 18% | % inhibition, cough amplitude ([2]; 50 mg/Kg per os): 13% | % inhibition, cough frequency ([2]; 50 mg/Kg per os): 10% | % inhibition, cough amplitude ([2]; 75 mg/Kg i.p.): 29% | % inhibition, cough frequency ([2]; 75 mg/Kg i.p.): 35% | % inhibition, cough amplitude ([2]; 75 mg/Kg per os): 22% | % inhibition, cough frequency ([2]; 75 mg/Kg per os): 18% | % inhibition, cough amplitude ([2]; 100 mg/Kg i.p.): 45% | % inhibition, cough frequency ([2]; 100 mg/Kg i.p.): 53% | % inhibition, cough amplitude ([2]; 100 mg/Kg per os): 40% | % inhibition, cough frequency ([2]; 100 mg/Kg per os): 50% | oedema % inhibition ([3]; 25 mg/Kg per os, 2 h): 28.9% | oedema % inhibition ([3]; 25 mg/Kg per os, 4 h): 30.1% | oedema % inhibition ([3]; 25 mg/Kg per os, 6 h): 29.0% | oedema % inhibition ([3]; 25 mg/Kg per os, 24 h): 8.3% | oedema % inhibition ([3]; 25 mg/Kg per os, 48 h): 0.0% | oedema % inhibition ([3]; 25 mg/Kg per os, 72 h): 0.0% | oedema % inhibition [3, 5]: 30.1% | oedema % inhibition [3, 6]: 27.9% | oedema % inhibition [3, 7]: 29.0% | oedema % inhibition [3, 8]: 13.0% | oedema % inhibition [3, 9]: 0.0% | oedema % inhibition [3, 10]: 0.0% | oedema % inhibition ([3]; 50 mg/Kg per os, 2 h): 48.9% | oedema % inhibition ([3]; 50 mg/Kg per os, 4 h): 49.0% | oedema % inhibition ([3]; 50 mg/Kg per os, 6 h): 47.1% | oedema % inhibition ([3]; 50 mg/Kg per os, 24 h): 9.9% | oedema % inhibition ([3]; 50 mg/Kg per os, 48 h): 0.0% | oedema % inhibition ([3]; 50 mg/Kg per os, 72 h): 0.0% | oedema % inhibition [3, 11]: 50.2% | oedema % inhibition [3, 12]: 51.0% | oedema % inhibition [3, 13]: 47.0% | oedema % inhibition [3, 14]: 15.1% | oedema % inhibition [3, 15]: 0.0% | oedema % inhibition [3, 16]: 0.0% | oedema % inhibition ([3]; 100 mg/Kg per os, 2 h): 66.9% | oedema % inhibition ([3]; 100 mg/Kg per os, 4 h): 67.1% | oedema % inhibition ([3]; 100 mg/Kg per os, 6 h): 69.0% | oedema % inhibition ([3]; 100 mg/Kg per os, 24 h): 22.0% | oedema % inhibition ([3]; 100 mg/Kg per os, 48 h): 13.0% | oedema % inhibition ([3]; 100 mg/Kg per os, 72 h): 0.0% | oedema % inhibition [3, 17]: 70.1% | oedema % inhibition [3, 18]: 68.9% | oedema % inhibition [3, 19]: 66.0% | oedema % inhibition [3, 20]: 19.0% | oedema % inhibition [3, 21]: 10.0% | oedema % inhibition [3, 22]: 0.0% | % Protection ([4]; 5 mg/Kg i.p.): 18.0% | % Protection ([4]; 5 mg/Kg per os): 16.2% | % Protection ([4]; 10 mg/Kg i.p.): 44.0% | % Protection ([4]; 10 mg/Kg per os): 37.9% | % Protection ([4]; 20 mg/Kg i.p.): 79.0% | % Protection ([4]; 20 mg/Kg per os): 70.1%

Cc1ccc(C(=O)c2ccc(CC(=O)N3CCOCC3)n2C)cc1 [Compound 3-a, 1-methyl-5-p-toluoylpyrrole-2-N-(4-morpholinyl) acetamide]
% difference in mucus secretion ([1]; 50 mg/Kg i.p., 3 h): -10% | % difference in mucus secretion ([1]; 50 mg/Kg i.p., 6 h): -7% | % difference in mucus secretion ([1]; 50 mg/Kg per os, 3 h): -7% | % difference in mucus secretion ([1]; 50 mg/Kg per os, 6 h): -8% | % difference in mucus secretion ([1]; 75 mg/Kg i.p., 3 h): -20% | % difference in mucus secretion ([1]; 75 mg/Kg i.p., 6 h): -18% | % difference in mucus secretion ([1]; 75 mg/Kg per os, 3 h): -15% | % difference in mucus secretion ([1]; 75 mg/Kg per os, 6 h): -10% | % difference in mucus secretion ([1]; 100 mg/Kg i.p., 3 h): -38% | % difference in mucus secretion ([1]; 100 mg/Kg i.p., 6 h): -29% | % difference in mucus secretion ([1]; 100 mg/Kg per os, 3 h): -32% | % difference in mucus secretion ([1]; 100 mg/Kg per os, 6 h): -25% | % inhibition, cough amplitude ([2]; 50 mg/Kg i.p.): 20% | % inhibition, cough frequency ([2]; 50 mg/Kg i.p.): 15% | % inhibition, cough amplitude ([2]; 50 mg/Kg per os): 15% | % inhibition, cough frequency ([2]; 50 mg/Kg per os): 16% | % inhibition, cough amplitude ([2]; 75 mg/Kg i.p.): 30% | % inhibition, cough frequency ([2]; 75 mg/Kg i.p.): 16% | % inhibition, cough amplitude ([2]; 75 mg/Kg per os): 30% | % inhibition, cough frequency ([2]; 75 mg/Kg per os): 18% | % inhibition, cough amplitude ([2]; 100 mg/Kg i.p.): 40% | % inhibition, cough frequency ([2]; 100 mg/Kg i.p.): 56% | % inhibition, cough amplitude ([2]; 100 mg/Kg per os): 35% | % inhibition, cough frequency ([2]; 100 mg/Kg per os): 45% | oedema % inhibition ([3]; 25 mg/Kg per os, 2 h): 27.1% | oedema % inhibition ([3]; 25 mg/Kg per os, 4 h): 29.0% | oedema % inhibition ([3]; 25 mg/Kg per os, 6 h): 32.3% | oedema % inhibition ([3]; 25 mg/Kg per os, 24 h): 7.1% | oedema % inhibition ([3]; 25 mg/Kg per os, 48 h): 0.0% | oedema % inhibition ([3]; 25 mg/Kg per os, 72 h): 0.0% | oedema % inhibition [3, 5]: 28.9% | oedema % inhibition [3, 6]: 32.7% | oedema % inhibition [3, 7]: 34.0% | oedema % inhibition [3, 8]: 10.1% | oedema % inhibition [3, 9]: 0.0% | oedema % inhibition [3, 10]: 0.0% | oedema % inhibition ([3]; 50 mg/Kg per os, 2 h): 46.0% | oedema % inhibition ([3]; 50 mg/Kg per os, 4 h): 49.1% | oedema % inhibition ([3]; 50 mg/Kg per os, 6 h): 48.0% | oedema % inhibition ([3]; 50 mg/Kg per os, 24 h): 13.4% | oedema % inhibition ([3]; 50 mg/Kg per os, 48 h): 0.0% | oedema % inhibition ([3]; 50 mg/Kg per os, 72 h): 0.0% | oedema % inhibition [3, 11]: 50.7% | oedema % inhibition [3, 12]: 48.9% | oedema % inhibition [3, 13]: 42.0% | oedema % inhibition [3, 14]: 11.2% | oedema % inhibition [3, 15]: 0.0% | oedema % inhibition [3, 16]: 0.0% | oedema % inhibition ([3]; 100 mg/Kg per os, 2 h): 60.0% | oedema % inhibition ([3]; 100 mg/Kg per os, 4 h): 55.2% | oedema % inhibition ([3]; 100 mg/Kg per os, 6 h): 69.7% | oedema % inhibition ([3]; 100 mg/Kg per os, 24 h): 18.1% | oedema % inhibition ([3]; 100 mg/Kg per os, 48 h): 0.0% | oedema % inhibition ([3]; 100 mg/Kg per os, 72 h): 0.0% | oedema % inhibition [3, 17]: 69.8% | oedema % inhibition [3, 18]: 69.0% | oedema % inhibition [3, 19]: 63.0% | oedema % inhibition [3, 20]: 13.1% | oedema % inhibition [3, 21]: 0.0% | oedema % inhibition [3, 22]: 0.0% | % Protection ([4]; 5 mg/Kg i.p.): 18.0% | % Protection ([4]; 5 mg/Kg per os): 16.0% | % Protection ([4]; 10 mg/Kg i.p.): 48.0% | % Protection ([4]; 10 mg/Kg per os): 39.0% | % Protection ([4]; 20 mg/Kg i.p.): 76.0% | % Protection ([4]; 20 mg/Kg per os): 65.0%
